{"source": "paper PMC5218480", "about": "(PLoS ONE, 2017)", "test_system": "MV-4-11 cells", "experiment": "Gene expression microarray analysis (Affymetrix PrimeView) and GSEA", "assay_type": "cell-based, human", "design": "RFU PODN (11730768_x_at) / Fold change /veh PODN (11730768_x_at) / RFU LINC00158 (11744669_a_at) / Fold change /veh LINC00158 (11744669_a_at) / RFU DUSP10 (11751237_a_at) / Fold change /veh DUSP10 (11751237_a_at) / RFU ID3 (11757404_x_at) / Fold change /veh ID3 (11757404_x_at) / RFU PLEKHG5 (11737974_s_at) / Fold change /veh PLEKHG5 (11737974_s_at) / RFU LRRC4B (11730491_at) / Fold change /veh LRRC4B (11730491_at) / RFU GIMAP4 (11747438_a_at) / Fold change /veh GIMAP4 (11747438_a_at) / RFU KRT8 (11758183_x_at) / Fold change /veh KRT8 (11758183_x_at) / RFU CNN1 (11734310_a_at) / Fold change /veh CNN1 (11734310_a_at) / RFU VPS37D (11726825_at) / Fold change /veh VPS37D (11726825_at) / RFU C10orf10 (11716522_x_at) / Fold change /veh C10orf10 (11716522_x_at) / RFU KIR2DL2 /// KIR2DL4 /// KIR2DL5A /// KIR2DL5B /// KIR2DS1 /// KIR2DS2 /// KIR2DS3 /// KIR2DS4 /// KIR3DL3 /// KIR3DL3 /// KIR3DS1 (11738374_at) / Fold change /veh KIR2DL2 /// KIR2DL4 /// KIR2DL5A /// KIR2DL5B /// KIR2DS1 /// KIR2DS2 /// KIR2DS3 /// KIR2DS4 /// KIR3DL3 /// KIR3DL3 /// KIR3DS1 (11738374_at) / RFU C1QL1 (11718748_at) / Fold change /veh C1QL1 (11718748_at) / RFU TMPRSS4 (11747572_a_at) / Fold change /veh TMPRSS4 (11747572_a_at) / RFU HAMP (11756126_x_at) / Fold change /veh HAMP (11756126_x_at) / RFU RNFT2 (11725882_a_at) / Fold change /veh RNFT2 (11725882_a_at) / RFU NR4A2 (11747474_a_at) / Fold change /veh NR4A2 (11747474_a_at) / RFU ABCC12 (11746883_a_at) / Fold change /veh ABCC12 (11746883_a_at) / RFU TMEM136 (11760407_x_at) / Fold change /veh TMEM136 (11760407_x_at) / RFU CLDN22 /// WWC2 (11732394_at) / Fold change /veh CLDN22 /// WWC2 (11732394_at) / RFU HLA-DPB1 (11760878_x_at) / Fold change /veh HLA-DPB1 (11760878_x_at) / RFU SPINT1 (11716480_a_at) / Fold change /veh SPINT1 (11716480_a_at) / RFU GAP43 (11754022_s_at) / Fold change /veh GAP43 (11754022_s_at) / RFU A4GNT (11735810_at) / Fold change /veh A4GNT (11735810_at) / RFU PRB3 (11715151_x_at) / Fold change /veh PRB3 (11715151_x_at) / RFU TUBB4B (11761932_at) / Fold change /veh TUBB4B (11761932_at) / RFU CAPN14 (11732068_a_at) / Fold change /veh CAPN14 (11732068_a_at) / RFU TMCC2 (11721928_a_at) / Fold change /veh TMCC2 (11721928_a_at) / RFU IRGQ (11745062_a_at) / Fold change /veh IRGQ (11745062_a_at) / RFU FAM174B (11720279_a_at) / Fold change /veh FAM174B (11720279_a_at) / RFU TMPRSS4 (11748680_a_at) / Fold change /veh TMPRSS4 (11748680_a_at) / RFU FAM212B (11763350_a_at) / Fold change /veh FAM212B (11763350_a_at) / RFU PLEKHG5 (11743358_a_at) / Fold change /veh PLEKHG5 (11743358_a_at) / RFU ZSCAN30 (11745921_a_at) / Fold change /veh ZSCAN30 (11745921_a_at) / RFU CMKLR1 (11741424_a_at) / Fold change /veh CMKLR1 (11741424_a_at) / RFU LOC101060620 /// MAPK8IP1 (11723275_at) / Fold change /veh LOC101060620 /// MAPK8IP1 (11723275_at) / RFU SPTSSB (11747773_x_at) / Fold change /veh SPTSSB (11747773_x_at) / RFU PRSS12 (11739890_at) / Fold change /veh PRSS12 (11739890_at) / RFU BIN1 (11741810_x_at) / Fold change /veh BIN1 (11741810_x_at) / RFU WNT11 (11732464_a_at) / Fold change /veh WNT11 (11732464_a_at) / RFU C10orf10 (11716521_a_at) / Fold change /veh C10orf10 (11716521_a_at) / RFU C5orf56 (11738089_at) / Fold change /veh C5orf56 (11738089_at) / RFU CYB561 (11721691_x_at) / Fold change /veh CYB561 (11721691_x_at) / RFU ANKRD19P (11752326_a_at) / Fold change /veh ANKRD19P (11752326_a_at) / RFU OR2T12 /// OR2T33 /// OR2T8 (11738714_s_at) / Fold change /veh OR2T12 /// OR2T33 /// OR2T8 (11738714_s_at) / RFU VCAN (11748164_a_at) / Fold change /veh VCAN (11748164_a_at) / RFU JSRP1 (11732532_at) / Fold change /veh JSRP1 (11732532_at) / RFU KRTAP10-11 (11738290_x_at) / Fold change /veh KRTAP10-11 (11738290_x_at) / RFU MYO3A (11730013_a_at) / Fold change /veh MYO3A (11730013_a_at) / RFU EBF3 (11725865_a_at) / Fold change /veh EBF3 (11725865_a_at) / RFU CAMK2N1 (11719241_x_at) / Fold change /veh CAMK2N1 (11719241_x_at) / RFU C5orf56 (11738088_a_at) / Fold change /veh C5orf56 (11738088_a_at) / RFU OLFML3 (11715873_a_at) / Fold change /veh OLFML3 (11715873_a_at) / RFU LOC100653217 /// NTM (11731650_a_at) / Fold change /veh LOC100653217 /// NTM (11731650_a_at) / RFU MAPK11 (11762145_a_at) / Fold change /veh MAPK11 (11762145_a_at) / RFU FIZ1 (11724087_x_at) / Fold change /veh FIZ1 (11724087_x_at) / RFU OASL (11726364_x_at) / Fold change /veh OASL (11726364_x_at) / RFU SOX15 (11748057_x_at) / Fold change /veh SOX15 (11748057_x_at) / RFU CD79A (11719716_a_at) / Fold change /veh CD79A (11719716_a_at) / RFU HIST1H1D (11736915_at) / Fold change /veh HIST1H1D (11736915_at) / RFU CASKIN2 (11723855_a_at) / Fold change /veh CASKIN2 (11723855_a_at) / RFU LOC730098 (11760151_x_at) / Fold change /veh LOC730098 (11760151_x_at) / RFU OR4N2 (11742367_at) / Fold change /veh OR4N2 (11742367_at) / RFU PRRT2 (11749266_a_at) / Fold change /veh PRRT2 (11749266_a_at) / RFU SNX32 (11753110_a_at) / Fold change /veh SNX32 (11753110_a_at) / RFU CDHR5 (11726645_a_at) / Fold change /veh CDHR5 (11726645_a_at) / RFU RCAN1 (11760418_a_at) / Fold change /veh RCAN1 (11760418_a_at) / RFU FAM167A (11723789_a_at) / Fold change /veh FAM167A (11723789_a_at) / RFU FAM26E (11764081_at) / Fold change /veh FAM26E (11764081_at) / RFU ISYNA1 (11749810_s_at) / Fold change /veh ISYNA1 (11749810_s_at) / RFU ACY1 (11761880_at) / Fold change /veh ACY1 (11761880_at) / RFU 11764098_at / Fold change /veh 11764098_at / RFU SAMD14 (11745864_x_at) / Fold change /veh SAMD14 (11745864_x_at) / RFU NPB (11741838_a_at) / Fold change /veh NPB (11741838_a_at) / RFU TMPRSS6 (11731388_a_at) / Fold change /veh TMPRSS6 (11731388_a_at) / RFU KRTAP10-2 (11738614_at) / Fold change /veh KRTAP10-2 (11738614_at) / RFU ARHGAP8 /// PRR5-ARHGAP8 (11727945_x_at) / Fold change /veh ARHGAP8 /// PRR5-ARHGAP8 (11727945_x_at) / RFU KRTAP5-7 /// NADSYN1 (11734609_at) / Fold change /veh KRTAP5-7 /// NADSYN1 (11734609_at) / RFU RASL12 (11751679_a_at) / Fold change /veh RASL12 (11751679_a_at) / RFU CDKN2B (11736163_a_at) / Fold change /veh CDKN2B (11736163_a_at) / RFU PRF1 (11729649_at) / Fold change /veh PRF1 (11729649_at) / RFU, ZNF638 /// ZNF638-IT1 / Fold change vs veh, ZNF638 /// ZNF638-IT1 / RFU, PANK3 / Fold change vs veh, PANK3 / RFU, SH3YL1 / Fold change vs veh, SH3YL1 / RFU, ZEB2 / Fold change vs veh, ZEB2 / RFU, NRIP1 / Fold change vs veh, NRIP1 / RFU, PTTG1IP / Fold change vs veh, PTTG1IP / RFU, CAPN2 / Fold change vs veh, CAPN2 / RFU, MED14 / Fold change vs veh, MED14 / RFU, SNORA58 / Fold change vs veh, SNORA58 / RFU, C1orf63 / Fold change vs veh, C1orf63 / RFU, LRRFIP1 / Fold change vs veh, LRRFIP1 / RFU, NDUFAF7 / Fold change vs veh, NDUFAF7 / RFU, SLC12A2 / Fold change vs veh, SLC12A2 / RFU, IBTK / Fold change vs veh, IBTK / RFU, ESF1 / Fold change vs veh, ESF1 / Fold change vs veh, TMEM50B / RFU, TAOK1 / Fold change vs veh, TAOK1 / RFU, ACBD3 / Fold change vs veh, ACBD3 / RFU, TMA16 / Fold change vs veh, TMA16 / RFU, RWDD3 / Fold change vs veh, RWDD3 / RFU, BCAT1 / Fold change vs veh, BCAT1 / RFU, EDEM3 / Fold change vs veh, EDEM3 / RFU, TMEM33 / Fold change vs veh, TMEM33 / RFU, WDR75 / Fold change vs veh, WDR75 / RFU, AHCTF1 / Fold change vs veh, AHCTF1 / RFU, TFRC / Fold change vs veh, TFRC / RFU, ZDHHC17 / Fold change vs veh, ZDHHC17 / RFU, NOM1 / Fold change vs veh, NOM1 / RFU, ARL8B / Fold change vs veh, ARL8B / RFU, ZBTB11 / Fold change vs veh, ZBTB11 / RFU, TAMM41 / Fold change vs veh, TAMM41 / RFU, KIAA1704 /// LOC100996395 / Fold change vs veh, KIAA1704 /// LOC100996395 / RFU, ING1 / Fold change vs veh, ING1 / RFU, TRMT61B / Fold change vs veh, TRMT61B / RFU, FUBP3 / Fold change vs veh, FUBP3 / RFU, TP53 / Fold change vs veh, TP53 / RFU, TNKS2 / Fold change vs veh, TNKS2 / RFU, ZFP14 / Fold change vs veh, ZFP14 / RFU, ACTR2 / Fold change vs veh, ACTR2 / RFU, PPP3R1 / Fold change vs veh, PPP3R1 / RFU, PIK3R1 / Fold change vs veh, PIK3R1 / RFU, HNRNPA1 / Fold change vs veh, HNRNPA1 / RFU, RNF170 / Fold change vs veh, RNF170 / RFU, ZNF28 / Fold change vs veh, ZNF28 / RFU, RNGTT / Fold change vs veh, RNGTT / RFU, OGT / Fold change vs veh, OGT / RFU, BRD1 / Fold change vs veh, BRD1 / RFU, MARS / Fold change vs veh, MARS / RFU, ZNF655 / Fold change vs veh, ZNF655 / RFU, FAHD1 / Fold change vs veh, FAHD1 / RFU, BDP1 / Fold change vs veh, BDP1 / RFU, LRRCC1 / Fold change vs veh, LRRCC1 / RFU, ARID1A / Fold change vs veh, ARID1A / RFU, ZNF146 / Fold change vs veh, ZNF146 / RFU, ZNF330 / Fold change vs veh, ZNF330 / RFU, GPN3 / Fold change vs veh, GPN3 / RFU, C9orf123 / Fold change vs veh, C9orf123 / RFU, N4BP2L2 / Fold change vs veh, N4BP2L2 / RFU, ARFIP1 / Fold change vs veh, ARFIP1 / RFU, FAM179B / Fold change vs veh, FAM179B / RFU, BCL10 / Fold change vs veh, BCL10 / RFU, UHRF1BP1L / Fold change vs veh, UHRF1BP1L / RFU, BET1 / Fold change vs veh, BET1 / RFU, CNOT2 / Fold change vs veh, CNOT2 / RFU, ZNF268 / Fold change vs veh, ZNF268 / Fold change vs veh, ZNF507 / RFU, DGCR2 / Fold change vs veh, DGCR2 / RFU, WDSUB1 / Fold change vs veh, WDSUB1 / Fold change vs veh, HSP90B1 /// MIR3652 / RFU, ADSS / Fold change vs veh, ADSS / RFU, GK / Fold change vs veh, GK / RFU, ZNF148 / Fold change vs veh, ZNF148 / RFU, TAF9 / Fold change vs veh, TAF9 / RFU, SLC1A5 / Fold change vs veh, SLC1A5 / RFU, SLMO2 / Fold change vs veh, SLMO2 / RFU, ABCC4 / Fold change vs veh, ABCC4 / RFU, LOC101060439 /// RAP1B / Fold change vs veh, LOC101060439 /// RAP1B / RFU, RFX7 / Fold change vs veh, RFX7 / RFU, GTPBP10 / Fold change vs veh, GTPBP10 / RFU, CNEP1R1 / Fold change vs veh, CNEP1R1 / RFU, BIVM-ERCC5 /// ERCC5 / Fold change vs veh, BIVM-ERCC5 /// ERCC5 / RFU, ILF3 / Fold change vs veh, ILF3 / RFU 11762660_at / Fold change /veh 11762660_at / RFU VCAN (11757783_s_at) / Fold change /veh VCAN (11757783_s_at) / RFU DDX43 (11728927_at) / Fold change /veh DDX43 (11728927_at) / RFU KRT8 (11758188_x_at) / Fold change /veh KRT8 (11758188_x_at) / RFU NKD1 (11759106_at) / Fold change /veh NKD1 (11759106_at) / RFU SRD5A1 (11742802_a_at) / Fold change /veh SRD5A1 (11742802_a_at) / RFU TPSAB1 /// TPSB2 (11721975_s_at) / Fold change /veh TPSAB1 /// TPSB2 (11721975_s_at) / RFU GSTM3 (11746129_a_at) / Fold change /veh GSTM3 (11746129_a_at) / RFU IL23R (11737362_x_at) / Fold change /veh IL23R (11737362_x_at) / RFU TMEM51 (11727254_a_at) / Fold change /veh TMEM51 (11727254_a_at) / RFU PIWIL2 (11732686_x_at) / Fold change /veh PIWIL2 (11732686_x_at) / RFU ORM1 (11744905_x_at) / Fold change /veh ORM1 (11744905_x_at) / RFU CCDC152 (11743942_at) / Fold change /veh CCDC152 (11743942_at) / RFU ECM1 (11717891_a_at) / Fold change /veh ECM1 (11717891_a_at) / RFU IL23R (11748794_a_at) / Fold change /veh IL23R (11748794_a_at) / RFU TNFAIP8L3 (11732012_x_at) / Fold change /veh TNFAIP8L3 (11732012_x_at) / RFU MBOAT4 (11741988_at) / Fold change /veh MBOAT4 (11741988_at) / RFU 11764193_at / Fold change /veh 11764193_at / RFU TMEM53 (11763286_at) / Fold change /veh TMEM53 (11763286_at) / RFU MAGEB2 (11727129_at) / Fold change /veh MAGEB2 (11727129_at) / RFU TMEM200A (11744735_a_at) / Fold change /veh TMEM200A (11744735_a_at) / RFU CCDC152 (11751479_a_at) / Fold change /veh CCDC152 (11751479_a_at) / RFU FAM211A (11726209_a_at) / Fold change /veh FAM211A (11726209_a_at) / RFU RGS16 (11746705_a_at) / Fold change /veh RGS16 (11746705_a_at) / RFU VCAN (11755009_s_at) / Fold change /veh VCAN (11755009_s_at) / RFU RHOB (11743442_s_at) / Fold change /veh RHOB (11743442_s_at) / RFU RGS16 (11720943_a_at) / Fold change /veh RGS16 (11720943_a_at) / RFU RGS16 (11720944_at) / Fold change /veh RGS16 (11720944_at) / RFU, VPS4B / Fold change vs veh, VPS4B / RFU, CREB1 / Fold change vs veh, CREB1 / RFU, DNAJC13 / Fold change vs veh, DNAJC13 / RFU, GNAQ / Fold change vs veh, GNAQ / RFU, CDK5R1 / Fold change vs veh, CDK5R1 / RFU, ZRANB3 / Fold change vs veh, ZRANB3 / RFU, CUL4A / Fold change vs veh, CUL4A / RFU, CCNY / Fold change vs veh, CCNY / RFU, UFL1 / Fold change vs veh, UFL1 / RFU, COG3 / Fold change vs veh, COG3 / RFU, DIAPH2 / Fold change vs veh, DIAPH2 / RFU, SKA2 / Fold change vs veh, SKA2 / RFU, AFF3 / Fold change vs veh, AFF3 / RFU, LMF1 / Fold change vs veh, LMF1 / RFU, IPO11 / Fold change vs veh, IPO11 / RFU, DFFB / Fold change vs veh, DFFB / RFU, FOXP1 / Fold change vs veh, FOXP1 / RFU, CARD8 / Fold change vs veh, CARD8 / RFU, STRN3 / Fold change vs veh, STRN3 / RFU, ADK / Fold change vs veh, ADK / RFU, RASSF2 / Fold change vs veh, RASSF2 / RFU, WIPF1 / Fold change vs veh, WIPF1 / RFU, LARP1B / Fold change vs veh, LARP1B / RFU, RASA1 / Fold change vs veh, RASA1 / RFU, RB1 / Fold change vs veh, RB1 / RFU, PPFIA1 / Fold change vs veh, PPFIA1 / RFU, MAT2A / Fold change vs veh, MAT2A / RFU, CCT5 / Fold change vs veh, CCT5 / RFU, WDR92 / Fold change vs veh, WDR92 / RFU, CUX1 / Fold change vs veh, CUX1 / RFU, TTC7A / Fold change vs veh, TTC7A / RFU, TMEM135 / Fold change vs veh, TMEM135 / RFU, DEPTOR / Fold change vs veh, DEPTOR / RFU, CPM / Fold change vs veh, CPM / RFU, DNAJB6 / Fold change vs veh, DNAJB6 / RFU, CACNA2D3 / Fold change vs veh, CACNA2D3 / RFU, DTX4 / Fold change vs veh, DTX4 / RFU, TFCP2 / Fold change vs veh, TFCP2 / RFU, GMCL1 /// GMCL1P1 / Fold change vs veh, GMCL1 /// GMCL1P1 / RFU, AEBP2 / Fold change vs veh, AEBP2 / RFU, SNHG1 /// SNORD22 /// SNORD25 /// SNORD26 /// SNORD27 /// SNORD28 /// SNORD29 /// SNORD31 / Fold change vs veh, SNHG1 /// SNORD22 /// SNORD25 /// SNORD26 /// SNORD27 /// SNORD28 /// SNORD29 /// SNORD31 / Fold change (Aza/veh), C12orf56 (ProbeSet 11735607_a_at) / Fold change (ACY-1035/veh), C12orf56 (ProbeSet 11735607_a_at) / Fold change (Aza/veh), FGFR1OP (ProbeSet 11751329_s_at) / Fold change (ACY-1035/veh), FGFR1OP (ProbeSet 11751329_s_at) / Fold change (Aza/veh), VPS36 (ProbeSet 11739960_a_at) / Fold change (ACY-1035/veh), VPS36 (ProbeSet 11739960_a_at) / RFU SYPL1 (11715823_x_at) / Fold change /veh SYPL1 (11715823_x_at) / RFU IGFBP7 (11715501_s_at) / Fold change /veh IGFBP7 (11715501_s_at) / RFU REEP3 (11722064_at) / Fold change /veh REEP3 (11722064_at) / RFU IGLL1 (11728026_x_at) / Fold change /veh IGLL1 (11728026_x_at): dose or concentration left out as unconfirmed", "details": "ProbeSet 11725787_a_at; LIST B"}
{"smiles": "Nc1ccc(-c2cccs2)cc1NC(=O)c1ccc2c(c1)cc(C1CC1)n2CCN1CCOCC1", "note": "[ACY-1035]", "values": [{"measurement": "RFU, TMA16", "value": 138.28, "unit": "RFU"}]}
